Where two headings read alike, the source gives them in different places.
Tests used:
hM1 = biological target: T1, hM1 (Homo sapiens, UniProt P11229); experiment: hM1 antagonist potency, calcium mobilization assay; format: cell-based; details: for % ACh activity remaining: at the highest concentration tested (30 μM)
T1 sequence (P11229 1-460): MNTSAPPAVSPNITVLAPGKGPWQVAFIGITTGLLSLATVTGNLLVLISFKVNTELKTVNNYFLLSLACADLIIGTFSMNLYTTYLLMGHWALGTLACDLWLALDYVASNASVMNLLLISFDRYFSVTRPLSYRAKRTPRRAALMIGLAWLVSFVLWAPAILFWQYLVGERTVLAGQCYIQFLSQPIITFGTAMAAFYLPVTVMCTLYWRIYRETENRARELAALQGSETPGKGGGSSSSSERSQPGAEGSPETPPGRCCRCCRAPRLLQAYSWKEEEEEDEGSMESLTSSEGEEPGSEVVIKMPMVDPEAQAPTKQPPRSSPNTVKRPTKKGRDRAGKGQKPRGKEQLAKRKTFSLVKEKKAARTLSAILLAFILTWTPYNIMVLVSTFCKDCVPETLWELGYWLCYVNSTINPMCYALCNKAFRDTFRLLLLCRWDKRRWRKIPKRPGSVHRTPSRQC

M1 = biological target: T2, M1 (Homo sapiens, UniProt P11229); format: cell-based; details: antagonism of ACh at M1; mean ± S.E.M. of three experiments in triplicate
T2 sequence (P11229 1-460): T1 sequence (P11229 1-460)

M1 mAChR = experiment: equilibrium radioligand binding, [3H]NMS competition; details: Figure 4A
[1] = in vitro hepatic microsome intrinsic clearance; format: in vitro ADME, rat
rat (r) M1-5 receptors = experiment: calcium mobilization assay, rat M1-5 selectivity; format: cell-based; details: CRCs in the presence of an EC80 concentration of ACh; Figure 5
[2] = test system: pilocarpine-induced seizures; details: rodents; cited from earlier work
[3] = test system: contextual fear conditioning; details: at doses that reduced seizures; cited from earlier work

Which “fold less active / less potent than ML012” value (hM1; hM1, relative to ML012) does the source give for `O=C(C1CN(S(=O)(=O)c2cccc3nsnc23)C1)N1CCN(c2ccncc2)CC1` [2d] here?
The value was 3 fold.

For `Cc1ccnc(S(=O)(=O)N2CC(C(=O)N3CCN(c4ccncc4)CC3)C2)c1` [7e], which “% ACh activity remaining” value (hM1; hM1) is on record?
Its value is 38%.

For `O=C(C1CN(S(=O)(=O)c2ccc(Cl)cn2)C1)N1CCN(c2ccncc2)CC1` [7f], which “% ACh activity remaining” value (hM1; hM1) is on record?
Its value is 41%.

Which results are given for `O=C(C1CN(S(=O)(=O)c2ccc3c(c2)OCO3)C1)N1CCN(c2ccncc2)CC1` [7o]?
slope of Schild regression (M1): 0.96 ± 0.02; displacement of the orthosteric ligand [3H]NMS (M1 mAChR): complete displacement

Which “% ACh activity remaining” value (hM1; hM1) does the source give for `COc1ccc(S(=O)(=O)N2CC(C(=O)N3CCN(c4ccncc4)CC3)C2)cn1` [7t] here?
The value was 20%.

With `O=C(C1CN(S(=O)(=O)c2ccc(C(F)(F)F)nc2)C1)N1CCN(c2ccncc2)CC1` [7u] as the compound, how does the “% ACh activity remaining” value (hM1; hM1) read?
The value was 40%.

For `O=C(C1CN(S(=O)(=O)c2ccc3c(c2)CCO3)C1)N1CCN(c2ccncc2)CC1` [7v], which “fold increase in potency” value (hM1; hM1, relative to ML012) is on record?
The value was 8 fold.

For `O=C(C1CN(S(=O)(=O)c2cccc3cnccc23)C1)N1CC2CN(c3ccncc3)CC2C1` (stereo not drawn) [12a], which “slope of Schild regression” value (M1) is on record?
The value was 0.94 ± 0.01.

And the “predicted hepatic clearance (CLHEP)” value ([1]; predicted from microsome intrinsic clearance)?
Its value is 42.3 mL/min/kg.

And the CLint scaled ([1]; rat, hepatic microsomes)?
Its CLint scaled is 107 mL/min/kg.

What about the “selectivity at rat M1 compared to M2-5” value (rat (r) M1-5 receptors) of the same compound?
The value was “selectively antagonize M1”.

And the “displacement of the orthosteric ligand [3H]NMS” value (M1 mAChR)?
The value was “complete displacement”.

For `O=C(C1CN(S(=O)(=O)c2cccc3nonc23)C1)N1CCN(c2ccccn2)CC1` [(1-(Benzo[c][1,2,5]oxadiazol-4-ylsulfonyl)azetidin-3-yl)(4-(pyridin-2-yl)piperazin-1-yl)methanone], which IC50 (hM1) is on record?
The IC50 was 5000 nM.

Which IC50 (hM1; read-out: hM1 IC50) does the source give for `Brc1ccc(N2CCNCC2)nc1` [(5-bromopyridin-2-yl)piperazine] here?
Its IC50 is 280 nM.

With `O=C(CCNS(=O)(=O)c1cccc2nsnc12)N1CCN(c2ccncc2)CC1` [ML012] as the compound, how does the “effect on pilocarpine-induced seizures” value [2] read?
Its value is “reduced pilocarpine-induced seizures”.

And the “impact on contextual fear conditioning” value [3]?
The value was “no negative impact on contextual fear conditioning”.

For `CN1[C@@H]2CC[C@H]1C[C@@H](OC(=O)C(CO)c1ccccc1)C2` (stereo partly drawn) [atropine, reference compound], which “displacement of the orthosteric ligand [3H]NMS” value (M1 mAChR) is on record?
The value was “compete with [^3H]NMS binding at M1”.

From PMC3883446 (Bioorganic & medicinal chemistry letters, 2012)
